In US20250090540A1, “PI3K-ALPHA INHIBITORS AND METHODS OF USE THEREOF” (Relay Therapeutics, Inc., priority 2021, published 2025):

Assays:
H1047R PIK3CA enzyme = H1047R PIK3CA enzyme (Homo sapiens, UniProt P42336, H1047R); test: ADP-Glo Biochemical PIK3CA Kinase Assay; conditions: ADP-Glo biochemical PIK3CA kinase assay
cells = conditions: Homo sapiens, MCF-10A, read-out: MCF10A I50

Sequence of H1047R PIK3CA enzyme (P42336 whole entry H1047R): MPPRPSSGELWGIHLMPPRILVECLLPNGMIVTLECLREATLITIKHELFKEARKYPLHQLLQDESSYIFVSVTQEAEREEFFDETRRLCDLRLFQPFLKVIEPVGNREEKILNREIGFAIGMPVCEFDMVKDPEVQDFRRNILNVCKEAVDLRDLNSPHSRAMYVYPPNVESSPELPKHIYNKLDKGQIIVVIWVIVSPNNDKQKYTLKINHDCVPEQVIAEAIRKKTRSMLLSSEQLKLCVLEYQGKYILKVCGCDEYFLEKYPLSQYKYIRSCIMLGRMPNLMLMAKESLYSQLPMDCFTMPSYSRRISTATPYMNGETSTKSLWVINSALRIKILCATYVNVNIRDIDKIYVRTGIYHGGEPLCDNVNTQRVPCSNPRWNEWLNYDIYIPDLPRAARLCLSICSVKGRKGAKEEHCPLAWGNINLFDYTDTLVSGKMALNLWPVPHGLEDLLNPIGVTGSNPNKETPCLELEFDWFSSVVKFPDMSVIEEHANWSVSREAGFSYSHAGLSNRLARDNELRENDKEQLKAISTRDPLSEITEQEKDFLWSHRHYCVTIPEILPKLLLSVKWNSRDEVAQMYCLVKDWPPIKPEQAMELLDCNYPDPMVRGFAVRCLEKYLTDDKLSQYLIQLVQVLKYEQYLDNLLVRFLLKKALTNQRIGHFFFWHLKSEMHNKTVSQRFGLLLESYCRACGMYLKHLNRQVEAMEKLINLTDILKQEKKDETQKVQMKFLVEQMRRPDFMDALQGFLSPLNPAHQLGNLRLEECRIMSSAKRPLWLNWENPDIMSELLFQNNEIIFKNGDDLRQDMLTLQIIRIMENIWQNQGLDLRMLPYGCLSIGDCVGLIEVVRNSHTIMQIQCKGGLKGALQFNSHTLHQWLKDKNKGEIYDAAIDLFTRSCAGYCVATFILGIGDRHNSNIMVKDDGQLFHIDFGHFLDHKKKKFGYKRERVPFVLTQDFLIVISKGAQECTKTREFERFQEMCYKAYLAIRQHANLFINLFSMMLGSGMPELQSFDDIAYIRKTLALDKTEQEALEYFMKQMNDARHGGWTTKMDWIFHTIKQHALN
Sequence of H1047R PIK3CA enzyme (P27986 whole entry partner): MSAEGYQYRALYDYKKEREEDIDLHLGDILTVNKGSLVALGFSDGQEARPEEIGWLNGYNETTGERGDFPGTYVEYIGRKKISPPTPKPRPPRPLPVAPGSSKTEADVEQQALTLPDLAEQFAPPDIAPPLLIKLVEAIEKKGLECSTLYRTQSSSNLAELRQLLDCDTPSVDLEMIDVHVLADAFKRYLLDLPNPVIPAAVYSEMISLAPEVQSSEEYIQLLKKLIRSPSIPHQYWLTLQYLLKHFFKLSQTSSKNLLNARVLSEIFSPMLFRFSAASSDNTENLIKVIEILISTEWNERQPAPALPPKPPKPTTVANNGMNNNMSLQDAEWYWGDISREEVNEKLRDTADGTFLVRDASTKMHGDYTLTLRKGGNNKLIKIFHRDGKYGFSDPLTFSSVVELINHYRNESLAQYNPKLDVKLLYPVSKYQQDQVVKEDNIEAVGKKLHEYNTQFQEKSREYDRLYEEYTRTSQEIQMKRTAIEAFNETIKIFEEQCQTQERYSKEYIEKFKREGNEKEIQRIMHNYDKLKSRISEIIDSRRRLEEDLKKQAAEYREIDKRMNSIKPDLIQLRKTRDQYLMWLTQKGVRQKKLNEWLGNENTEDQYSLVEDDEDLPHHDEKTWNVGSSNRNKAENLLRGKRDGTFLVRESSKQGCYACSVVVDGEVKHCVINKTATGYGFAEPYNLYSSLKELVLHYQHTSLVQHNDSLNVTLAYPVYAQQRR

| SMILES | IC50 (H1047R PIK3CA enzyme) [µM] | IC50 (cells) [µM] |
| --- | --- | --- |
| Cc1cncc(CNC(=O)c2cnc(Nc3ccccc3C)c(NC(=O)c3csc4ccccc34)c2)c1 [I-579] | ≤ 0.1 | 5 to 10 |
| Cc1ccccc1Nc1ncc(C(=O)NCC2(C#N)CC2)cc1NC(=O)c1csc2ccccc12 [I-580] | ≤ 0.1 | 1 to 5 |
| Cc1ccccc1Nc1ncc(C(=O)NC2(C)CC2)cc1NC(=O)c1csc2ccccc12 [I-581] | ≤ 0.1 | 1 to 5 |
| Cc1ccccc1Nc1ncc(C(=O)NCc2nnc3ccccn23)cc1NC(=O)c1csc2ccccc12 [I-582] | ≤ 0.1 | 5 to 10 |
| Cc1ccccc1Nc1ncc(C(=O)NCC2(O)CCOC2)cc1NC(=O)c1csc2ccccc12 (centres unmarked) [I-583] | 0.5 to 1 | 10 to 36 |
| Cc1ccccc1Nc1ncc(C(=O)NC2CCOCC2)cc1NC(=O)c1csc2ccccc12 [I-584] | 0.1 to 0.5 | 5 to 10 |
| Cc1ccccc1Nc1ncc(C(=O)NC2COCC(O)C2)cc1NC(=O)c1csc2ccccc12 (centres unmarked) [I-585] | 0.1 to 0.5 | 10 to 36 |
| Cc1ccccc1Nc1ncc(C(=O)NCC2CCC(O)C2)cc1NC(=O)c1csc2ccccc12 (centres unmarked) [I-588] | 0.1 to 0.5 | 10 to 36 |
| Cc1ccccc1Nc1ncc(C(=O)N[C@@H]2COC[C@@H]2F)cc1NC(=O)c1csc2ccccc12 [I-590] | 0.1 to 0.5 | 5 to 10 |
| Cc1ccccc1Nc1ncc(C(=O)N[C@H]2C[C@@H](C(N)=O)C2)cc1NC(=O)c1csc2ccccc12 [I-591] | ≤ 0.1 | 1 to 5 |
| COCC(=O)N1CCC(NC(=O)c2cnc(Nc3ccccc3C)c(NC(=O)c3csc4ccccc34)c2)CC1 [I-592] | 1 to 10 | 5 to 10 |
| Cc1ccccc1Nc1ncc(C(=O)NCc2nccc3ccccc23)cc1NC(=O)c1csc2ccccc12 [I-593] | 0.1 to 0.5 | 10 to 36 |
| Cc1ccccc1Nc1ncc(C(=O)N[C@@H]2CCO[C@@H]2C)cc1NC(=O)c1csc2ccccc12 [I-594] | 0.1 to 0.5 | 5 to 10 |
| Cc1ccccc1Nc1ncc(C(=O)N[C@H]2CC[C@@H](O)C2)cc1NC(=O)c1csc2ccccc12 [I-596] | 0.1 to 0.5 | 1 to 5 |
| Cc1ccccc1Nc1ncc(C(=O)NCC(=O)N2CCCC2)cc1NC(=O)c1csc2ccccc12 [I-597] | 1 to 10 | 36 to 100 |
| COc1cc(CCNC(=O)c2cnc(Nc3ccccc3C)c(NC(=O)c3csc4ccccc34)c2)ccn1 [I-598] | 0.1 to 0.5 | 5 to 10 |
| Cc1ccccc1Nc1ncc(C(=O)NCC2(O)CC2)cc1NC(=O)c1csc2ccccc12 [I-599] | 0.1 to 0.5 | 5 to 10 |
| Cc1ccccc1Nc1ncc(C(=O)NCc2cn(C)nc2C)cc1NC(=O)c1csc2ccccc12 [I-601] | ≤ 0.1 | 5 to 10 |
| Cc1ccccc1Nc1ncc(C(=O)NCc2cocn2)cc1NC(=O)c1csc2ccccc12 [I-602] | 0.1 to 0.5 | 10 to 36 |
| Cc1ccccc1Nc1ncc(C(=O)NCC2(O)CCOCC2)cc1NC(=O)c1csc2ccccc12 [I-603] | 0.5 to 1 | 10 to 36 |
| Cc1cc(CNC(=O)c2cnc(Nc3ccccc3C)c(NC(=O)c3csc4ccccc34)c2)no1 [I-604] | ≤ 0.1 | 1 to 5 |
| Cc1ccccc1Nc1ncc(C(=O)NC(C)c2cn[nH]c2)cc1NC(=O)c1csc2ccccc12 (centres unmarked) [I-605] | ≤ 0.1 | 1 to 5 |
| Cc1ccccc1Nc1ncc(C(=O)N2CC(C)C2)cc1NC(=O)c1csc2ccccc12 [I-607] | 0.1 to 0.5 | 5 to 10 |
| Cc1ccccc1Nc1ncc(C(=O)NCC2(S(C)(=O)=O)CCC2)cc1NC(=O)c1csc2ccccc12 [I-608] | 0.5 to 1 | 10 to 36 |
| Cc1ccccc1Nc1ncc(C(=O)Nc2ccc3cn(C)nc3c2)cc1NC(=O)c1csc2ccccc12 [I-609] | ≤ 0.1 | 1 to 5 |
| Cc1ccccc1Nc1ncc(C(=O)NCC(O)C2CCCC2)cc1NC(=O)c1csc2ccccc12 (centres unmarked) [I-610] | 0.1 to 0.5 | 10 to 36 |
| CCn1ccc(C)c(CNC(=O)c2cnc(Nc3ccccc3C)c(NC(=O)c3csc4ccccc34)c2)c1=O [I-611] | 0.1 to 0.5 | 5 to 10 |
| Cc1ccccc1Nc1ncc(C(=O)NC2(C(N)=O)CC2)cc1NC(=O)c1csc2ccccc12 [I-612] | 0.1 to 0.5 | < 1 |
